Bounds are passed on as bounds.

In the first experiment the test system is green peach aphid (Myzus persicae). The experiment is described as follows: Myzus test (MYZUPE spray treatment), Chinese cabbage leaf discs. It is filed as in vivo. The note with it: foliar, application rate of 500 g/ha, spray on Chinese cabbage discs, read-out: effect in % (aphids killed). The procedure:
Myzus Test (MYZUPE Spray Treatment)
Solvents: 78 parts by weight of acetone • • 1.5 parts by weight of dimethylformamide Emulsifier: 0.5 part by weight of alkylaryl polyglycol ether
An appropriate preparation of active ingredient is prepared by mixing 1 part by weight of active ingredient with the stated amounts of solvents and emulsifier and diluting the concentrate with emulsifier-containing water to the desired concentration.
Discs of Chinese cabbage (Brassica pekinensis) infested with all stages of the green peach aphid (Myzus persicae) are sprayed with a preparation of active ingredient at the desired concentration.
After the desired time, the effect in % is determined. Here, 100% means that all of the aphids have been killed; 0% means that no aphids have been killed.
Turning to `CN(C(=O)c1ccc(OC(F)(F)F)cc1)c1cccnc1` [I-266], the pest or weed control at 500 g/ha is no less than 80%.

Turning to `CC(C)C(=O)Nc1cc(C(=O)N(C)c2cccnc2)ccc1F` [I-298], the pest or weed control at 500 g/ha was no less than 80%.

As for `Cc1ccc(C(=O)N(C)c2cccnc2)cc1NC(=O)OC(C)C` [I-316], the pest or weed control at 500 g/ha is no less than 80%.

`CC(C)Oc1ccc(C(=O)N(C)c2cccnc2)cc1-n1ccc(C(F)(F)F)n1` [I-279]: the pest or weed control at 500 g/ha was no less than 80%.

For `CN(C(=O)c1cn(C)nc1C(F)(F)F)c1ccnnc1` [I-322], the pest or weed control at 500 g/ha is no less than 80%.

In the case of `CC(=O)Nc1cc(C(=O)N(C)c2cccnc2)ccc1Cl` [I-307], the pest or weed control at 500 g/ha was no less than 80%.

On to `CCC(=O)Nc1cc(C(=O)N(C)c2cccnc2)ccc1OC` [I-331], for which the pest or weed control at 500 g/ha is no less than 80%.

In the case of `CCn1cc(C(=O)N(C)c2ccnnc2)c(C)n1` [I-327], the pest or weed control at 500 g/ha is no less than 80%.

As to `COCC(=O)Nc1cc(C(=O)N(C)c2cccnc2)ccc1OC` [I-335], the pest or weed control at 500 g/ha was no less than 80%.

For the compound `COc1ccc(C(=O)N(C)c2cccnc2)cc1NC(=O)C1CCCC1` [I-333], the pest or weed control at 500 g/ha is no less than 80%.

With `Cc1ccc(C(=O)Nc2cccnc2)cc1NC(=O)C1CC1` [I-292], the pest or weed control at 500 g/ha is no less than 80%.

For the compound `COC(C)c1c(C(=O)N(C)c2cccnc2)cnn1CC(F)(F)F` (stereo not shown) [I-275], the pest or weed control at 500 g/ha was no less than 80%.

Regarding `CN(C(=O)c1cn(C)nc1C(F)F)c1ccnnc1` [I-319], the pest or weed control at 500 g/ha is no less than 80%.

As for `CN(C(=O)c1cnn(-c2ccccc2Cl)c1C(F)(F)F)c1cccnc1` [I-271], the pest or weed control at 500 g/ha was no less than 80%.

For `CC(C)n1ncc(C(=O)N(C)c2cccnc2)c1C(F)(F)F` [I-329], the pest or weed control at 500 g/ha was no less than 80%.

With `COc1ccc(C(=O)Nc2cccnc2)cc1OC` [I-263], the pest or weed control at 500 g/ha is no less than 80%.

As to `COc1ccc(C(=O)N(C)c2cccnc2)cc1NS(=O)(=O)C(C)C` [I-334], the pest or weed control at 500 g/ha was no less than 80%.

Regarding `CN(C(=O)c1cnn(CC(F)(F)F)c1C(F)F)c1cccnc1` [I-269], the pest or weed control at 500 g/ha is no less than 80%.

As to `CN(C(=O)c1cnn(-c2ncccn2)c1C(F)F)c1cccnc1` [I-274], the pest or weed control at 500 g/ha was no less than 80%.

For `COCc1c(C(=O)N(C)c2cccnc2)cnn1CC(F)(F)F` [I-270], the pest or weed control at 500 g/ha is no less than 80%.

Turning to `C/C=C/C(=O)Nc1cc(C(=O)N(C)c2cccnc2)ccc1C` [I-317], the pest or weed control at 500 g/ha is no less than 80%.

For the compound `CN(C(=O)c1ccc(F)c(NC(=O)C2CC2)c1)c1cccnc1` [I-301], the pest or weed control at 500 g/ha was no less than 80%.

Regarding `CC(C)C(=O)Nc1cc(C(=O)N(C)c2cccnc2)ccc1Cl` [I-299], the pest or weed control at 500 g/ha is no less than 80%.

In the case of `COc1ccc(C(=O)N(C)c2cccnc2)cc1OC` [I-260], the pest or weed control at 500 g/ha was no less than 80%.

In the case of `CN(C(=O)c1cn(C)nc1C1CC1)c1ccnnc1` [I-324], the pest or weed control at 500 g/ha is no less than 80%.

With `CCCC(=O)Nc1cc(C(=O)N(C)c2cccnc2)ccc1OC` [I-336], the pest or weed control at 500 g/ha is no less than 80%.

Turning to `Cc1ccc(C(=O)N(C)c2cccnc2)cc1NC(=O)C1CCCC1` [I-312], the pest or weed control at 500 g/ha was no less than 80%.

Turning to `CC(F)c1nn(C)cc1C(=O)N(C)c1ccnnc1` (stereo not shown) [I-321], the pest or weed control at 500 g/ha is no less than 80%.

Take `Cn1cc(C(=O)Nc2ccnnc2)c(C(F)(F)F)n1` [I-281]: the pest or weed control at 500 g/ha was no less than 80%.

Consider `CC(C)n1ncc(C(=O)Nc2cccnc2)c1C(F)(F)F` [I-285], for which the pest or weed control at 500 g/ha was no less than 80%.

In the case of `COc1ccc(C(=O)N(C)c2cccnc2)cc1NC(=O)C(C)(C)C` [I-303], the pest or weed control at 500 g/ha is no less than 80%.

`CC(=O)Nc1cccc(C(=O)N(C)c2cccnc2)c1` [I-283]: the pest or weed control at 500 g/ha is no less than 80%.

As to `COc1ccc(C(=O)Nc2cccnc2)cc1NC(=O)C1CC1` [I-293], the pest or weed control at 500 g/ha was no less than 80%.

Staying with this experiment, now noted: foliar, application rate of 500 ppm, spray on Chinese cabbage discs, read-out: effect in % (aphids killed).
For `CN(C(=O)c1ccc(S(C)(=O)=O)c(N)c1)c1cccnc1` [I-296], the pest or weed control at 500 ppm is no less than 80%.

Values taken from patent publication US20100305124A1, “Acylated Aminopyridine and Aminopyridazine Insecticides” (BAYER CROPSCIENCE AG, priority 2009, published 2010).
